From patent publication US6995143B2, “Macrolides with antibacterial activity” (Basilea Pharmaceutica AG, priority 2002, dated 2006)
Values after ≈ are worked out from the molar mass of the structure shown.

Legend:
Type in all cases: cell-based
[1] = test system: Haemophilus influenzae B1501; assay: MIC, standard agar dilution method using HTM medium; details: for MIC: read-out: minimum inhibitory concentration (MIC), Strain M
Text: (§1) The biological activities of compounds of the present invention against Haemophilus influenzae have been determined by standard agar dilution method using HTM medium (National Committee for Clinical Laboratory Standards. 2000. Methods for Dilution Antimicrobial Susceptibility Tests for Bacteria that Grow Aerobically, 5th edition. Approved standard M7-A5. National Committee for Clinical Laboratory Standards, Wayne, Pa.).

[2] = test system: Haemophilus influenzae QK50; assay: as above; details: for MIC: read-out: minimum inhibitory concentration (MIC), Strain L
Text: as §1

[3] = test system: Haemophilus influenzae 12214; assay: as above; details: for MIC: read-out: minimum inhibitory concentration (MIC), Strain K
Text: as §1

[4] = test system: Haemophilus influenzae QK12/87; assay: as above; details: for MIC: read-out: minimum inhibitory concentration (MIC), Strain I
Text: as §1

[5] = test system: Staphylococcus aureus ATCC 29213; assay: MIC, standard microdilution technique; details: for MIC: ATCC29213, read-out: minimum inhibitory concentration (MIC), Strain A
Text: (§2) The antibacterial activities of the compounds have been determined by standard microdilution technique (National Committee for Clinical Laboratory Standards. 2000. Methods for Dilution Antimicrobial Susceptibility Tests for Bacteria that Grow Aerobically, 5th edition. Approved standard M7-A5. National Committee for Clinical Laboratory Standards, Wayne, Pa.).

[6] = test system: Streptococcus pneumoniae l/l; assay: MIC, standard microdilution technique; details: for MIC: read-out: minimum inhibitory concentration (MIC), Strain E
Text: as §2

[7] = test system: Streptococcus pneumoniae SL199T; assay: MIC, standard microdilution technique; details: for MIC: read-out: minimum inhibitory concentration (MIC), Strain G
Text: as §2

[8] = test system: Staphylococcus aureus 1086; assay: MIC, standard microdilution technique; details: for MIC: read-out: minimum inhibitory concentration (MIC), Strain B
Text: as §2

[9] = test system: Escherichia coli ATCC 25922; assay: MIC, standard microdilution technique; details: for MIC: ATCC25922, read-out: minimum inhibitory concentration (MIC), Strain D
Text: as §2

[10] = test system: Streptococcus pneumoniae ¼; assay: MIC, standard microdilution technique; details: for MIC: read-out: minimum inhibitory concentration (MIC), Strain F
Text: as §2

[11] = test system: Streptococcus pneumoniae 12288; assay: MIC, standard microdilution technique; details: for MIC: read-out: minimum inhibitory concentration (MIC), Strain H
Text: as §2

[12] = test system: Staphylococcus aureus 745; assay: MIC, standard microdilution technique; details: for MIC: read-out: minimum inhibitory concentration (MIC), Strain C
Text: as §2

Row | MIC [1] [µg/mL] | MIC [2] [µg/mL] | MIC [3] [µg/mL] | MIC [4] [µg/mL] | MIC [5] [µg/mL] | MIC [7] [µg/mL] | MIC [8] [µg/mL] | MIC [9] [µg/mL] | minimum inhibitory concentration (MIC), Strain M [1] [µg/mL] | minimum inhibitory concentration (MIC), Strain L [2] [µg/mL] | minimum inhibitory concentration (MIC), Strain K [3] [µg/mL] | minimum inhibitory concentration (MIC), Strain I [4] [µg/mL] | minimum inhibitory concentration (MIC), Strain A [5] | minimum inhibitory concentration (MIC), Strain E [6] | minimum inhibitory concentration (MIC), Strain G [7] [µg/mL] | minimum inhibitory concentration (MIC), Strain B [8] | minimum inhibitory concentration (MIC), Strain D [9] [µg/mL] | minimum inhibitory concentration (MIC), Strain F [10] [µg/mL] | minimum inhibitory concentration (MIC), Strain H [11] [µg/mL] | minimum inhibitory concentration (MIC), Strain C [12] [µg/mL] | Structure (SMILES) | other results
1 | 32 (≈ 40.9 µM) | 32 (≈ 40.9 µM) | > 32 | > 32 | 2 (≈ 2.56 µM) | 32 (≈ 40.9 µM) | 2 (≈ 2.56 µM) | > 32 |  |  |  |  |  |  |  |  |  |  |  |  | CC[C@H]1OC(=O)[C@@](C)(F)C(=O)[C@H](C)[C@@H](O[C@@H]2O[C@H](C)C[C@H](N(C)C)[C@H]2O)[C@](C)(OC)C[C@@H](C)C(=O)[C@H](C)[C@H]2[C@@H](SCc3ccc(OC)cc3)C(=O)O[C@@]21C (single isomer, unassigned) [Example 1, (3R or S, 3aR, 4R or S, 6R, 8R, 9R, 10R, 12S, 15R, 15aS)-15-Ethyl-12-fluorooctahydro-8-methoxy-3-[[(4-methoxyphenyl)methyl]thio]-4,6,8,10,12,15a-hexamethyl-9-[[3,4,6-trideoxy-3-(dimethylamino)-β-D-xylo-hexopyranosyl]oxy]-2H-furo [2,3-c] oxacyclotetradecin-2,5,11,13 (3H,6H,12H)-tetrone] | MIC [6]: 0.5 µg/mL (≈ 0.639 µM); MIC [10]: 8 µg/mL (≈ 10.2 µM); MIC [11]: > 32 µg/mL; MIC [12]: > 32 µg/mL
2 |  |  |  |  |  |  |  |  | >32 | 32 (≈ 39.3 µM) | >32 | >32 | 2 µg/mL (≈ 2.46 µM) | <=0.06 μg/ml | >32 | 2 µg/mL (≈ 2.46 µM) | >32 | 4 (≈ 4.91 µM) | >32 | >32 | CC[C@H]1OC(=O)[C@@](C)(F)C(=O)[C@H](C)[C@@H](O[C@@H]2O[C@H](C)C[C@H](N(C)C)[C@H]2O)[C@](C)(OC)C[C@@H](C)C(=O)[C@H](C)[C@H]2[C@@H](S(=O)(=O)Cc3ccc(OC)cc3)C(=O)O[C@@]21C (single isomer, unassigned) [Example 2] | 
3 |  |  |  |  |  |  |  |  | >32 | >32 | >32 | >32 | 2 µg/mL (≈ 2.51 µM) | <=0.06 μg/ml | 32 (≈ 40.1 µM) | 2 µg/mL (≈ 2.51 µM) | >32 | 16 (≈ 20.1 µM) | >32 | >32 | CC[C@H]1OC(=O)[C@H](C)C(=O)[C@H](C)[C@@H](O[C@@H]2O[C@H](C)C[C@H](N(C)C)[C@H]2O)[C@](C)(OC)C[C@@H](C)C(=O)[C@H](C)[C@H]2[C@@H](SSc3ncccc3[N+](=O)[O-])C(=O)O[C@@]21C (single isomer, unassigned) [Example 3] | 
4 |  |  |  |  |  |  |  |  | >32 | 32 (≈ 37.8 µM) | >32 | 32 (≈ 37.8 µM) | 0.5 µg/mL (≈ 0.591 µM) | 0.5 µg/mL (≈ 0.591 µM) | 8 (≈ 9.46 µM) | 0.5 µg/mL (≈ 0.591 µM) | >32 | 2 (≈ 2.36 µM) | 16 (≈ 18.9 µM) | >32 | CC[C@H]1OC(=O)[C@@](C)(F)C(=O)[C@H](C)[C@@H](O[C@@H]2O[C@H](C)C[C@H](N(C)C)[C@H]2O)[C@](C)(OC)C[C@@H](C)C(=O)[C@H](C)[C@H]2[C@@H](SCCCn3cc(-c4ccccc4)cn3)C(=O)O[C@@]21C (single isomer, unassigned) [Example 10] | 
5 | 4 (≈ 4.8 µM) | 4 (≈ 4.8 µM) | 4 (≈ 4.8 µM) | 8 (≈ 9.59 µM) | ≤ 0.06 | 0.25 (≈ 0.3 µM) | ≤ 0.06 | > 32 |  |  |  |  |  |  |  |  |  |  |  |  | CC[C@H]1OC(=O)[C@@](C)(F)C(=O)[C@H](C)[C@@H](O[C@@H]2O[C@H](C)C[C@H](N(C)C)[C@H]2O)[C@](C)(OC)C[C@@H](C)C(=O)[C@H](C)[C@H]2[C@@H](SCCn3cnc(-c4cccnc4)n3)C(=O)O[C@@]21C (single isomer, unassigned) [Example 12, (3R or S, 3aR, 4R or S, 6R, 8R, 9R, 10R, 12S, 15R, 15aS)-15-Ethyl-12-fluorooctahydro-8-methoxy-4,6,8,10,12,15a-hexamethyl-3-[[2-[3-(3-pyridinyl)-1H-1,2,4-triazole-1-yl]ethyl]thio]-9-[[3,4,6-trideoxy-3-(dimethylamino)-β-D-xylo-hexopyranosyl]oxy]-2H-furo [2,3-c] oxacyclotetradecin-2,5,11,13 (3H,6H,12H)-tetrone] | MIC [6]: ≤ 0.06 µg/mL; MIC [10]: ≤ 0.06 µg/mL; MIC [11]: 4 µg/mL (≈ 4.8 µM); MIC [12]: > 32 µg/mL
6 |  |  |  |  |  |  |  |  | 2 (≈ 2.37 µM) | 2 (≈ 2.37 µM) | 2 (≈ 2.37 µM) | 2 (≈ 2.37 µM) | <=0.06 μg/ml | <=0.06 μg/ml | 1 (≈ 1.18 µM) | <=0.06 μg/ml | >32 | 2 (≈ 2.37 µM) | 16 (≈ 19 µM) | >32 | CC[C@H]1OC(=O)[C@@](C)(F)C(=O)[C@H](C)[C@@H](O[C@@H]2O[C@H](C)C[C@H](N(C)C)[C@H]2O)[C@](C)(OC)C[C@@H](C)C(=O)[C@H](C)[C@H]2[C@@H](SCCOCn3cc(C)c(=O)[nH]c3=O)C(=O)O[C@@]21C (single isomer, unassigned) [Example 14, (3R or S) 3aR, 4R or S, 6R, 8R, 9R, 10R, 12S, 15R, 15aS)-15-Ethyl-12-fluorooctahydro-8-methoxy-4,6,8,10,12,15a-hexamethyl-3-[[2-[[5-methyl-2,4-(1H,3H)-pyrimidinedione-1-yl]methoxy]ethyl]thio]-9-[[3,4,6-trideoxy-3-(dimethylamino)-β-D-xylo-hexopyranosyl]oxy]-2H-furo [2,3-c] oxacyclotetradecin-2,5,11,13 (3H,6H,12H)-tetrone] | 
7 | 8 (≈ 9.71 µM) | 16 (≈ 19.4 µM) | 16 (≈ 19.4 µM) | 16 (≈ 19.4 µM) | 2 (≈ 2.43 µM) | 32 (≈ 38.8 µM) | 1 (≈ 1.21 µM) | > 32 |  |  |  |  |  |  |  |  |  |  |  |  | CC[C@H]1OC(=O)[C@H](C)C(=O)[C@H](C)[C@@H](O[C@@H]2O[C@H](C)C[C@H](N(C)C)[C@H]2O)[C@](C)(OC)C[C@@H](C)C(=O)[C@H](C)[C@H]2[C@@H](S(=O)(=O)CCNC(=O)c3cccnc3)C(=O)O[C@@]21C (single isomer, unassigned) [Example 43, (3R or S, 3aR, 4R or S, 6R, 8R, 9R, 10R, 12R, 15R, 15aS) -15-Ethyloctahydro-8-methoxy-4,6,8,10,12,15a-hexamethyl-3-[[2-[(3-pyridinylcarbonyl)amino]ethyl]sulfonyl]-9-[[-3,4,6-trideoxy-3-(dimethylamino)-β-D-xylo-hexopyranosyl]oxy]-2H-furo [2,3-c] oxacyclotetradecin-2,5,11,13 (3H,6H,12H)-tetrone] | MIC [11]: > 32 µg/mL; MIC [12]: > 32 µg/mL

Row | Structure (SMILES) | MIC [1] [µg/mL] | MIC [2] [µg/mL] | MIC [3] [µg/mL] | MIC [4] [µg/mL] | MIC [5] [µg/mL] | MIC [7] [µg/mL] | MIC [8] [µg/mL] | MIC [9] [µg/mL] | minimum inhibitory concentration (MIC), Strain M [1] [µg/mL] | minimum inhibitory concentration (MIC), Strain L [2] [µg/mL] | minimum inhibitory concentration (MIC), Strain K [3] [µg/mL] | minimum inhibitory concentration (MIC), Strain I [4] [µg/mL] | minimum inhibitory concentration (MIC), Strain A [5] | minimum inhibitory concentration (MIC), Strain E [6] | minimum inhibitory concentration (MIC), Strain G [7] [µg/mL] | minimum inhibitory concentration (MIC), Strain B [8] | minimum inhibitory concentration (MIC), Strain D [9] [µg/mL] | minimum inhibitory concentration (MIC), Strain F [10] [µg/mL] | minimum inhibitory concentration (MIC), Strain H [11] [µg/mL] | minimum inhibitory concentration (MIC), Strain C [12] [µg/mL] | other results
8 | CC[C@H]1OC(=O)[C@H](C)C(=O)[C@H](C)[C@@H](O[C@@H]2O[C@H](C)C[C@H](N(C)C)[C@H]2O)[C@](C)(OC)C[C@@H](C)C(=O)[C@H](C)[C@H]2[C@@H](SCC(=O)OC)C(=O)O[C@@]21C (single isomer, unassigned) [Example 5] |  |  |  |  |  |  |  |  | 16 (≈ 22.3 µM) | 32 (≈ 44.7 µM) | 32 (≈ 44.7 µM) | 32 (≈ 44.7 µM) | 1 µg/mL (≈ 1.4 µM) | 0.125 µg/mL (≈ 0.175 µM) | >32 | 1 µg/mL (≈ 1.4 µM) | >32 | >32 | >32 | >32 | 
